Reference: patent US20050250784A1 (Miikana Therapeutics Corporation, priority 2004, published 2005)

These compounds were tested on HDAC (HeLa cell nuclear extract, a mosaic of HDAC enzymes) (assay: In vitro fluorescent histone deacetylase assay (Biomol HDAC fluorescent activity kit)). Details: compound concentration 100 μM; HeLa cell nuclear extract as HDAC source; substrate 50 μM, 10 min, room temperature.
Assay type: biochemical
Protocol: Histone deacetylase (HDAC) activity assays were performed using the HDAC fluorescent activity assay/drug discovery kit (Biomol Research Laboratories, Plymouth Meeting, Pa.) essentially according to the manufacturer's instructions. The included HeLa cell nuclear extract, which contains a mosaic of HDAC enzymes and other nuclear factors, was used as the source of HDAC activity. The final substrate concentration in the assay mixture was 50 μM. The reaction was allowed to proceed for 10 min at room temperature before stopping the reaction. Test compounds were prepared as 20 mM stock solutions in DMSO (Molecular Biology grade, Sigma-Aldrich Co., St. Louis, Mo.) and stored at −70° C. Serial dilutions of test compounds were prepared in assay buffer immediately prior to testing. DMSO was determined in a separate trial to have no significant effect on the activity of this assay at concentrations up to 5%; the final DMSO concentration in the wells was no more than 2% and therefore DMSO effects were safely neglected. Assays were performed in white polystyrene 96-well half-area assay plates (Corning, Corning, N.Y.) and measured on a Wallace 1420 fluorescent plate reader (Wallac Oy, Turku, Finland) with an excitation wavelength of 355 nm, an emission wavelength of 460 nm, and a 1 sec signal averaging time.
With `Cc1cccc(Cl)c1S(=O)(=O)N1CCN(c2ncc(C(=O)NO)s2)CC1` [Example 238, 2-[4-(2-methyl-6-chlorophenylsulfonyl)-piperazin-1-yl]-thiazole-5-carboxylic acid hydroxyamide] the “% inhibition HDAC @ 100 μM” value was 100%.

Each compound was assayed on MCF7 cells (assay: Whole cell cytotoxicity assay: Sulforhodamine B). Details: Homo sapiens; compound concentration 100 μM; MCF7 cell growth, 48 hours with drug, SRB staining.
Assay type: cell-based, Human
Protocol: The following procedure can be found on the Developmental Therapeutics Program NCI/NIH web site at http://dtp.nci.nih.gov/brancehes/btb/ivclsp.html.
1. Human tumor cell lines of HT29, A549 and MCF7 are grown in DMEM containing 10% fetal bovine serum and 2 mM L-glutamine. Cells are plated in a 96 well plate at a density of 5000 cells per well in 100 uL of growth medium and incubated at 37° C., 5% CO2, for 24 hours prior to the addition of experimental compounds.
2. Experimental drugs are solubilized in DMSO for a final concentration of 20 mM immediately prior to use. Drugs are further diluted in growth media for a total of nine drug concentrations and a growth control. At the 24 hour time point, one plate of cells is fixed in situ with TCA as a measurement of the cell population at time zero, or the time of drug addition.
3. The plates are further incubated with drug for an additional 48 hours.
4. The cells are fixed in situ by gently aspirating off the culture media and then adding 50 uL of ice cold 10% TCA per well and incubated at 4° C. for 60 minutes. The plates are washed with tap water five times and allowed to air dry for 5 minute.
5. 50 ul of a 0.4% (w/v) Sulforhodamine B solution in 1% (v/v) acetic acid is added per well and incubated for 30 minutes at room temperature.
6. Following staining, plates are washed five times with 1% acetic acid to remove any unbound dye and then allowed to air dry for 5 minutes.
7. Stain is solubilized with 100 uL of 10 mM Tris pH 10.5 per well and placed on an orbital rotator for 5 minutes.
8. Absorbance is read at 570 nm.
With `O=C(NO)c1cnc(N2CCN(S(=O)(=O)c3ccc(-c4csc(CN5CCCC5)c4)cc3)CC2)s1` [Example 307, 2-{4-[4-(2-(pyrrolidin-1-ylmethyl)thien-4-yl)phenylsulfonyl]piperazin-1-yl}-1,3-thiazole-5-carboxylic acid hydroxyamide] the inhibition at 100 µM was 99%.
For `CN(C)Cc1ccoc1-c1ccc(S(=O)(=O)N2CCN(c3ncc(C(=O)NO)s3)CC2)cc1` [Example 308, 2-(4-{4-[3-((dimethylamino)-methyl)-2-furyl]phenylsulfonyl}piperazin-1-yl)-1,3-thiazole-5-carboxylic acid hydroxyamide], the inhibition at 100 µM was 99%.
Work on `O=C(NO)c1cnc(N2CCN(S(=O)(=O)c3ccc(-c4cc(CN5CCCC5)co4)cc3)CC2)s1` [Example 309] yielded an inhibition at 100 µM of 83%.
Work on `CN(C)Cc1ccsc1-c1ccc(S(=O)(=O)N2CCN(c3ncc(C(=O)NO)s3)CC2)cc1` [Example 310] yielded an inhibition at 100 µM of 98%.
Compound `CN(CCO)Cc1cccc(-c2ccc(S(=O)(=O)N3CCN(c4ncc(C(=O)NO)s4)CC3)cc2)c1` [Example 311, 2-{4-[3′-{[(2-hydroxyethyl)(methyl)amino]methyl}-1,1′-biphenylsulfonyl]piperazin-1-yl}-1,3-thiazole-5-carboxylic acid hydroxyamide] has an inhibition at 100 µM of 98%.
For `O=C(NO)c1cnc(N2CCN(S(=O)(=O)c3ccc(-c4cccc(CN(CCO)CCO)c4)cc3)CC2)s1` [Example 312, 2-{4-[3′-{[bis(2-hydroxyethyl)amino]methyl}-1,1′-biphenylsulfonyl]piperazin-1-yl}-1,3-thiazole-5-carboxylic acid hydroxyamide], the inhibition at 100 µM was 85%.
`O=C(NO)c1cnc(N2CCN(S(=O)(=O)c3ccc(-c4cccc(CN5CC=CCC5)c4)cc3)CC2)s1` [Example 313, 2-{4-[3′-(3,6-dihydropyridin-1(2H)-ylmethyl)-1,1-biphenylsulfonyl]piperazin-1-yl}-1,3-thiazole-5-carboxylic acid hydroxyamide] showed an inhibition at 100 µM of 92%.
With `CCCCN(C)Cc1cccc(-c2ccc(S(=O)(=O)N3CCN(c4ncc(C(=O)NO)s4)CC3)cc2)c1` [Example 314, 2-{4-[3′-{[(butyl)(methyl)amino]methyl}-1,1′-biphenylsulfonyl]piperazin-1-yl}-1,3-thiazole-5-carboxylic acid hydroxyamide] the inhibition at 100 µM was 97%.
Work on `O=C(NO)c1cnc(N2CCN(S(=O)(=O)c3ccc(-c4cccc(CN5CCNCC5)c4)cc3)CC2)s1` [Example 315, 2-{4-[3′-((piperazin-1-yl)methyl)-1,1′-biphenylsulfonyl]piperazin-1-yl}-1,3-thiazole-5-carboxylic acid hydroxyamide] yielded an inhibition at 100 µM of 95%.
Work on `COCCN(C)Cc1cccc(-c2ccc(S(=O)(=O)N3CCN(c4ncc(C(=O)NO)s4)CC3)cc2)c1` [Example 316, 2-{4-[3′-{[(2-methoxyethyl)(methyl)amino]methyl}-1,1′-biphenylsulfonyl]piperazin-1-yl}-1,3-thiazole-5-carboxylic acid hydroxyamide] yielded an inhibition at 100 µM of 97%.
`C=CCN(CC=C)Cc1cccc(-c2ccc(S(=O)(=O)N3CCN(c4ncc(C(=O)NO)s4)CC3)cc2)c1` [Example 317] showed an inhibition at 100 µM of 66%.
Compound `CNCc1cccc(-c2ccc(S(=O)(=O)N3CCN(c4ncc(C(=O)NO)s4)CC3)cc2)c1` [Example 318, 2-{4-[3′-{[methylamino]methyl}-1,1′-biphenylsulfonyl]piperazin-1-yl}-1,3-thiazole-5-carboxylic acid hydroxyamide] has an inhibition at 100 µM of 86%.
`CC(=O)NCc1cccc(-c2ccc(S(=O)(=O)N3CCN(c4ncc(C(=O)NO)s4)CC3)cc2)c1` [Example 319, 2-{4-[3′-{[N-acetylamino]methyl}-1,1′-biphenylsulfonyl]piperazin-1-yl}-1,3-thiazole-5-carboxylic acid hydroxyamide] showed an inhibition at 100 µM of 89%.
`COCc1cccc(-c2ccc(S(=O)(=O)N3CCN(c4ncc(C(=O)NO)s4)CC3)cc2)c1` [Example 320, 2-{4-[3′-{methoxymethyl}-1,1′-biphenylsulfonyl]piperazin-1-yl}-1,3-thiazole-5-carboxylic acid hydroxyamide] gave an inhibition at 100 µM of 92%.
`O=C(NO)c1cnc(N2CCN(S(=O)(=O)c3ccc(-c4ccccc4CN4CCCC4)cc3)CC2)s1` [Example 321, 2-{4-[2′-{pyrrolidin-1-ylmethyl}-1,1′-biphenylsulfonyl]piperazin-1-yl]-1,3-thiazole-5-carboxylic acid hydroxyamide] gave an inhibition at 100 µM of 95%.
`O=C(NO)c1cnc(N2CCN(S(=O)(=O)c3cccc(OC(F)F)c3)CC2)s1` [Example 323, 2-(4-{[3-(difluoromethoxy)phenyl]sulfonyl}piperazin-1-yl)-1,3-thiazole-5-carboxylic acid hydroxyamide] gave an inhibition at 100 µM of 100%.
`Cc1ccc(S(=O)(=O)N2CCN(c3ncc(C(=O)NO)s3)CC2)cc1[N+](=O)[O-]` [Example 324, 2-{4-[(4-methyl-3-nitrophenyl)sulfonyl]piperazin-1-yl}-1,3-thiazole-5-carboxylic acid hydroxyamide] showed an inhibition at 100 µM of 96%.
`COc1ccc(OC)c(S(=O)(=O)N2CCN(c3ncc(C(=O)NO)s3)CC2)c1` [Example 325, 2-{4-[(2,5-dimethoxyphenyl)sulfonyl]piperazin-1-yl}-1,3-thiazole-5-carboxylic acid hydroxyamide] gave an inhibition at 100 µM of 98%.
`Cc1ccc(C)c(S(=O)(=O)N2CCN(c3ncc(C(=O)NO)s3)CC2)c1` [Example 326, 2-{4-[(2,5-dimethylphenyl)sulfonyl]piperazin-1-yl}-1,3-thiazole-5-carboxylic acid hydroxyamide] showed an inhibition at 100 µM of 98%.
Compound `Cc1ccc(S(=O)(=O)N2CCN(c3ncc(C(=O)NO)s3)CC2)c(CN2CCCC2)c1` [Example 327, 2-(4-{[2-(pyrrolidin-1-ylmethyl)-4-methylphenyl]sulfonyl}piperazin-1-yl)-1,3-thiazole-5-carboxylic acid hydroxyamide] has an inhibition at 100 µM of 92%.
Compound `O=C(NO)c1cnc(N2CCN(S(=O)(=O)c3ccc(N4CCCC4)c(F)c3)CC2)s1` [Example 328, 2-(4-{[3-fluoro-4-(pyrrolidin-1-yl)phenyl]sulfonyl}piperazin-1-yl)-1,3-thiazole-5-carboxylic acid hydroxyamide] has an inhibition at 100 µM of 96%.
Compound `O=C(NO)c1cnc(N2CCN(S(=O)(=O)c3ccc(N4CCCCC4)cc3)CC2)s1` [Example 329, 2-(4-{[4-(piperidin-1-yl)phenyl]sulfonyl}piperazin-1-yl)-1,3-thiazole-5-carboxylic acid hydroxyamide] has an inhibition at 100 µM of 97%.
With `O=C(NO)c1cnc(N2CCN(S(=O)(=O)c3ccc(N4CCOCC4)cc3)CC2)s1` [Example 330, 2-(4-{[4-(morpholin-4-yl)phenyl]sulfonyl}piperazin-1-yl)-1,3-thiazole-5-carboxylic acid hydroxyamide] the inhibition at 100 µM was 91%.
`O=C(NO)c1cnc(N2CCN(S(=O)(=O)C(F)(F)F)CC2)s1` [Example 331, 2-{4-[(trifluoromethyl)sulfonyl]piperazin-1-yl}-1,3-thiazole-5-carboxylic acid hydroxyamide] gave an inhibition at 100 µM of 76%.
`CCS(=O)(=O)N1CCN(c2ncc(C(=O)NO)s2)CC1` [Example 332, 2-{4-[ethylsulfonyl]piperazin-1-yl}-1,3-thiazole-5-carboxylic acid hydroxyamide] showed an inhibition at 100 µM of 30%.

Same assay, conditions: compound concentration 100 μM; MCF7 cell growth, 48 hours with drug, SRB staining
For “2-(4-{4-[(3-(pyrrolidin-1-ylmethyl)-2-furyl]phenylsulfonyl}piperazin-1-yl)-1,3-thiazole-5-carboxylic acid hydroxyamide [Example 283]”, the “% inhibition MCF7 cells @ 100 μM” value was 98%.
In the case of “2-[4-(naphtha-2-yl-4-sulfonyl)-piperazin-1-yl]-thiazole-5-carboxylic acid hydroxyamide [Example 201]”, the “% inhibition MCF7 cells @ 100 μM” value is reported as 95%.
In the case of `Cc1ccc(S(=O)(=O)N2CCN(c3ncc(C(=O)NO)s3)CC2)cc1` [Example 204, 2-[4-(4-toluene-4-sulfonyl)-piperazin-1-yl]-thiazole-5-carboxylic acid hydroxyamide], the “% inhibition MCF7 cells @ 100 μM” value is reported as 95.4%.
